# Assay results as given in PMC3298089 (Journal of Medicinal Chemistry, 2012).
# Legend:
# AKR1C3 = molecular target: T1, AKR1C3 (Homo sapiens, UniProt P42330); test: Inhibition of NADP+ dependent oxidation of S-tetralol catalyzed by AKR1C3; assay type: biochemical
# T1 sequence (P42330 1-323): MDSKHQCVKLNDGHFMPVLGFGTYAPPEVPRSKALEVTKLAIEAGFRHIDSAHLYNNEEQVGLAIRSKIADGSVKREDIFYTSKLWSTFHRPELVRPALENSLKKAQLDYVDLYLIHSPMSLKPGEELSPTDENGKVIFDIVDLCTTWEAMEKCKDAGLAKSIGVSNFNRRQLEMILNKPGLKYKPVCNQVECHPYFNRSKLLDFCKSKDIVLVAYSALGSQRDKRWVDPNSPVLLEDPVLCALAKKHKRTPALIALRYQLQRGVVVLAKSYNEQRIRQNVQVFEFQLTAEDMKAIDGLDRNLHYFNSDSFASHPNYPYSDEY
# AKR1C2 = molecular target: T2, AKR1C2 (Homo sapiens, UniProt P52895); test: Inhibition of NADP+ dependent oxidation of S-tetralol catalyzed by AKR1C2; assay type: biochemical; conditions: selectivity for AKR1C3; high value = high selectivity
# T2 sequence (P52895 1-323): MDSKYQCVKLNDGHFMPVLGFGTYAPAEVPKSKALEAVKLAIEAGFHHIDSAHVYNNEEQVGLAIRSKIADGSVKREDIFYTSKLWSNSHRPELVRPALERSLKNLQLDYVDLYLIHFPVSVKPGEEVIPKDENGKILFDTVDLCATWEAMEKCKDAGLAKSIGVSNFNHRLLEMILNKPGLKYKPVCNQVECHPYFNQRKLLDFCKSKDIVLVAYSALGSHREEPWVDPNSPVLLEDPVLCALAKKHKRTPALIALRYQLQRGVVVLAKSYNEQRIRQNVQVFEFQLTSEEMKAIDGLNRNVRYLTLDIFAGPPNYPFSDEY
# [1] = test system: AKR1C3 mediated production of testosterone in LNCaP-AKR1C3 cells; test: LNCaP-AKR1C3 mediated formation of testosterone from [14C]-Δ4-AD; assay type: cell-based, human; conditions: 10 μM inhibitor, 0.1 μM [14C]-Δ4-AD, 48 h, relative to control
Compound,IC50 (AKR1C3) [nM],Ratio IC50 1C2:1C3 (AKR1C2),also measured
CC(C)(C)c1ccc(Nc2ccccc2C(=O)O)cc1 [Compound 1o],38,–,–
O=C(O)c1cccc(Nc2cccc(C(=O)O)c2)c1 [Compound 4l],–,>28.0,–
O=C(O)c1cccc(Nc2ccc([N+](=O)[O-])cc2)c1 [Compound 4m],33,–,–
CC(=O)c1ccc(Nc2cccc(C(=O)O)c2)c(C(=O)O)c1 [Compound 4w],–,–,inhibition of testosterone production in LNCaP-AKR1C3 cells [1]: Almost identical results
"O=C(O)c1ccc(Nc2cccc([N+](=O)[O-])c2)cc1 [Compound 5d, 4-((3-nitrophenyl)amino)benzoic acid]",–,>24,–
O=C(O)c1ccc(Nc2ccc(Br)cc2)cc1 [Compound 5l],–,>25,–
